In US20240294457A1, “Strained bi-functionalized trans-cyclooctenes” (Stichting Radboud Universiteit, priority 2021, published 2024):
Values belong to the compound of their own block, whether it stands above or below them.

Columns and labels:
[1] = Kinetics study of TCO-Tz click reaction by UV spectroscopy (540 nm); conditions: MeCN, 20° C.
Method: FIG. 1: The kinetics of TCO E-02a and 3,6-di(pyridin-2-yl)-1,2,4,5-tetrazine with a concentration of 10 and 50 μM at 20° C. in MeCN.
The reaction rate in a TCO-Tz click reaction of E-02a was measured under similar conditions as described in Versteegen et al., Angewandte Chemie International Edition 2013, 52 (52), 14112-14116. The second order reaction constant of the reaction between 3,6-di(pyridin-2-yl)-1,2,4,5-tetrazine and E-02a was determined under second order conditions in MeCN at 20° C. by UV spectroscopy. A cuvette was filled with MeCN (2.8 mL) and equilibrated at 20° C. A stock solution of tetrazine in DMSO (100 μl) was added to the cuvette. The absorption of the tetrazine moiety was measured at 540 nm. Next, the cuvette was removed from the apparatus to add a stock solution of E-02a in DMSO (100 μl) and briefly mixed the solution by shaking the cuvette before placing it back into the apparatus. The absorption at 540 nm was measured for 15 minutes. From this absorption at 540 nm, the concentration of tetrazine was calculated using a molar absorption coefficient of ε=430 M^−1 cm^−1. […] TCO reactions known from the prior art (Versteegen et al., Angewandte Chemie International Edition 2013, 52 (52), 14112-14116, DOI: 10.1002/anie.201305969) were assessed at 83.3 μM and afforded a lower rate of 62, 5 M^−1s^−1 under similar conditions.

[2] = 19F-NMR kinetic study of click-to-release reaction (release of PFP)
Method: FIG. 2: ^19F-NMR kinetic study of the click-to-release reaction of 20 mM TCO (E-03a) with 3,6-di(pyridin-2-yl)-1,2,4,5-tetrazine at 20° C.
The ^19F NMR (377 MHz) spectrum of an NMR-tube filled with a solution of E-03a (5 mg, 1.0 equiv, 11.9 μmol) in CDCl3 (500 μl) was measured. Next, a solution of 3,6-di(pyridin-2-yl)-1,2,4,5-tetrazine (3.1 mg, 1.1 equiv, 13 μmol) in CDCl3 (100 μl) was added to the NMR tube. The tube was vigorously shaken and placed back in the NMR apparatus. The sample was measured within two minutes after the addition of the second compound. Every 48 seconds a measurement (number of scans: 4, relaxation delay: 5.8 see, range: −147.0 to −178.5 ppm) was taken of the sample. After 160 minutes the measurements were stopped.
Only after elevating the temperature to +10° C., the pentafluorophenyl carbonate was released from the conjugated product. Release of payload from compounds of the invention was not only found to be fast, but also complete. […] The fastest payload release observed with their compounds afforded less than 20% release over 250 minutes.

[3] = Stability test of TCO in deuterated PBS buffer at 37° C. followed by 1H-NMR; assay type: physicochemical; conditions: covered from light
Method: An NMR tube was charged with a solution of E-04a (41 mg) in deuterated PBS buffer (500 μl). The NMR sample was placed in a water bath at 37° C. while being covered from light by aluminum foil.

[4] = Kinetics study of fluorophore (AMC) release, fluorescence, with DM tetrazine; conditions: PBS pH=7.2, 37° C.
Method: (§1) A procedure adapted from prior art was followed (Fan, X. et al., Optimized tetrazine derivatives for rapid bioorthogonal decaging in living cells. Angew. Chem. 2016, 128 (45), 14252-14256.)
(§2) Stock solutions (all in DMSO) • Stock A (R): E-022a (10 mmolar) • Stock A (NR): E-022b (10 mmolar) • Stock B (DM): 3,6-Dimethyl-1,2,4,5-tetrazine (DM) (20 mmolar) • Stock B (BP): 3,6-Di-2-pyridyl-1,2,4,5-tetrazine (BP) (20 mmolar) • Stock PC: 7-Amino-4-methylcoumarin (10 mmolar) 2.5 μL of the tetrazine stock (DM or BP) was mixed with 395.5 μL of PBS (pH=7.2). 2 μL of the TCO stock (A (R) or A (NR)) was added to this. The reaction mixtures were incubated at 37° C. under mixing (300 rpm). Subsequently, the fluorescence (F1) was measured (ex: 380 nm, em. 450 nm) at certain time points after the addition of the TCO by aliquoting 30 μL in a 384 wells plate (Greiner, black non-binding flat bottom) and directly measuring with a Tecan Spark plate-reader. As control experiment the maximum amount of released AMC was measured (F2, Stock PC without tetrazine or TCO). […] The release efficiency (%) was calculated: F1/F2×100%. All experiments were executed in triplo and the data was processed using GraphPad Prism (version 9.0). The Kelim. values were determined by first-order exponential one phase decay approximations. […] For BP this value was 2.96*10^−6S^−1.

[5] = Kinetics study of fluorophore (AMC) release, fluorescence, with BP tetrazine; conditions: PBS pH=7.2, 37° C., first-order one phase fit
Method: as §1, §2

[6] = Kinetics study of doxorubicin release by HPLC/LCMS; conditions: PBS pH=7.2, 37° C., directly after addition of tetrazine
Method: Stock solutions (all in DMSO) • Stock E-025a: E-025a (10 mmolar) • Stock Ttz: 3,6-dimethyl-1,2,4,5-tetrazine (XA, 20 mmolar) Procedure: 100 μL of the TCO-Dox stock was added to 900 μL of PBS (pH=7.2) and HPLC analysis was done which only indicated starting material (t=13.08 min). Hereafter the reaction was incubated at 37° C. under mixing (300 rpm) and 500 μL of the Ttz stock was added. At certain time points after the addition of the Ttz the reaction mixture was analyzed by aliquoting 200 μL and analysis by HPLC/LCMS.

Structure (SMILES): CCOC(=O)C1C2CC=CC(O)CCC21 (single isomer, unassigned) [E-02a]
- second order rate constant k2 (reaction rate) of click reaction ([1]; concentration 10 μM): 249 M⁻¹ s⁻¹
- second order rate constant k2 (reaction rate) of click reaction ([1]; concentration 50 μM): 437 M⁻¹ s⁻¹

Structure (SMILES): CCOC(=O)[C@H]1[C@@H]2CCC(OC(=O)Oc3c(F)c(F)c(F)c(F)c3F)C=CC[C@@H]21 (stereo in doubt) [E-03b, ethyl (1S,5R,8R,9S, E)-5-(((perfluorophenoxy)carbonyl)oxy)bicyclo[6.1.0]non-3-ene-9-carboxylate]
- release rate compared with E-03a ([2]; E-03b used instead of E-03a): several factors slower

Structure (SMILES): CCOC(=O)[C@H]1[C@@H]2CC[C@@H](OC(=O)Oc3c(F)c(F)c(F)c(F)c3F)/C=C/C[C@@H]21 [E-03a, ethyl (1S,5R,8R,9S, E)-5-(((perfluorophenoxy)carbonyl)oxy)bicyclo[6.1.0]non-3-ene-9-carboxylate]
- release of PFP (pentafluorophenolate) after 20 minutes ([2]; 20 mM TCO, CDCl3, 20° C., 1.1 equiv tetrazine): Almost complete release
- release upon tautomerization from the click product ([2]; lower temperatures, 40 mM, dipyridyl tetrazine): instantaneous
- formation of pentafluorophenol from click conjugate ([2]; −20° C., 40 mM, dipyridyl tetrazine): did not show any formation of pentafluorophenol

- changes in the 1H-NMR spectrum after 7 days [3]: no changes
Structure (SMILES): O=C(O)[C@H]1[C@@H]2CC[C@@H](O)/C=C/C[C@@H]21 [E-04a, (1S,5R,8R,9S, E)-5-hydroxybicyclo[6.1.0]non-3-ene-9-carboxylic acid]

Structure (SMILES): CCOC(=O)[C@H]1[C@@H]2CC[C@@H](OC(=O)Nc3ccc4c(C)cc(=O)oc4c3)/C=C\C[C@@H]21 [E-022a, COOEt-Exo-Axial-TCO-AMC]
- Kelim. value of AMC release ([4]; DM tetrazine, first-order one phase fit): 8.15*10^−5 S^−1
- Kelim. value of AMC release [5]: 2.96*10^−6 S^−1

Structure (SMILES): CCOC(=O)[C@H]1[C@@H]2CCC(OC(=O)Nc3ccc4c(C)cc(=O)oc4c3)/C=C\C[C@@H]21 (stereo partly drawn) [E-022b, COOEt-Exo-Equatorial-TCO-AMC]
- AMC release compared with E-022a ([4]; tetrazine (DM or BP) not specified): slower

Structure (SMILES): CCOC(=O)[C@H]1[C@@H]2CC[C@@H](OC(=O)N[C@H]3C[C@H](O[C@H]4C[C@](O)(C(=O)CO)Cc5c(O)c6c(c(O)c54)C(=O)c4c(OC)cccc4C6=O)O[C@@H](C)[C@@H]3O)/C=C\C[C@@H]21 [E-025a, COOEt-Exo-Axial-TCO-PNP]
- release of doxorubicin after addition of the tetrazine [6]: almost instant release
